Experimental findings from US20080009418A1, “Selective Inhibitors” (Alchemia LTD., priority 2004, published 2008) are described below.

The target in one experiment is T1, Human μ-opioid (MOP) (Homo sapiens, UniProt P35372).
T1 construct: purchased Perkin Elmer Biosignal
Kind of experiment: Radioligand binding, human μ-opioid (MOP) membranes, FlashPlate, [3H]-Naloxone. The note with it: compound at 10 μM; for A7: inhibition of radioligand binding: FlashPlate. The method in brief: (§1)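 Cloned human receptor membranes were coated onto FlashPlate wells and incubated with radioligand and compound (added from a 0.5 mM DMSO daughter plate) for 1 hour at room temperature in the dark. Scintillation counting gave percent inhibition, with DMSO defining total and reference ligand defining non-specific binding.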

For a further experiment, the target named is T2, Human melanocortin (MC5) (Homo sapiens, UniProt P33032).
T2 construct: purchased Perkin Elmer Biosignal
T2 sequence (P33032 whole entry): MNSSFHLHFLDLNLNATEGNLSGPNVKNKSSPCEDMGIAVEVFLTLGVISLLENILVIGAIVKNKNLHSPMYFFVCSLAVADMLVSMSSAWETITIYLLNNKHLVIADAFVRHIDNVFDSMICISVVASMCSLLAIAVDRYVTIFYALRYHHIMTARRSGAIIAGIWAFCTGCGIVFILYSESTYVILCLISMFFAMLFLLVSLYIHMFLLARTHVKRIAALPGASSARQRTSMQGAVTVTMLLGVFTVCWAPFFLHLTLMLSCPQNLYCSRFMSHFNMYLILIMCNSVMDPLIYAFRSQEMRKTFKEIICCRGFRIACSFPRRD
Kind of experiment: Radioligand binding, human melanocortin MC5 membranes, FlashPlate, [125I]-NDP-αMSH. The settings on record: compound at 10 μM; for A5: inhibition of radioligand binding: FlashPlate. The method in brief:
as §1

The target in the next experiment is T3, Human δ-opioid (DOP) (Homo sapiens, UniProt P41143).
T3 construct: purchased Perkin Elmer Biosignal
T3 sequence (P41143 whole entry): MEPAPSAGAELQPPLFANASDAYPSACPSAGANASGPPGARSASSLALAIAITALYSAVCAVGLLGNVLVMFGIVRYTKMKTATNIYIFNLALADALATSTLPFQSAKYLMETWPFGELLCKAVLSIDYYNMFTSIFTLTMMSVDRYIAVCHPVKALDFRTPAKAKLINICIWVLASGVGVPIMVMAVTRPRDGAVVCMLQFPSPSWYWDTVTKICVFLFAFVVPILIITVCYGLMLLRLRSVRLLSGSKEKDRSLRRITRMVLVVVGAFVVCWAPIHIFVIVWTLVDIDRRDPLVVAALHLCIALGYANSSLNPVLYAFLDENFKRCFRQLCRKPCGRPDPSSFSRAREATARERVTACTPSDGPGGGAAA
Kind of experiment: Radioligand binding, human δ-opioid (DOP) membranes, FlashPlate, [3H]-Bremazocine. The settings on record: compound at 10 μM; for A1: inhibition of radioligand binding: FlashPlate. The method in brief: as §1

Experiment [1] addresses T4, Human neuropeptide Y (NPY-Y1) (Homo sapiens, UniProt P25929).
T4 construct: purchased Perkin Elmer Biosignal
T4 sequence (P25929 1-384): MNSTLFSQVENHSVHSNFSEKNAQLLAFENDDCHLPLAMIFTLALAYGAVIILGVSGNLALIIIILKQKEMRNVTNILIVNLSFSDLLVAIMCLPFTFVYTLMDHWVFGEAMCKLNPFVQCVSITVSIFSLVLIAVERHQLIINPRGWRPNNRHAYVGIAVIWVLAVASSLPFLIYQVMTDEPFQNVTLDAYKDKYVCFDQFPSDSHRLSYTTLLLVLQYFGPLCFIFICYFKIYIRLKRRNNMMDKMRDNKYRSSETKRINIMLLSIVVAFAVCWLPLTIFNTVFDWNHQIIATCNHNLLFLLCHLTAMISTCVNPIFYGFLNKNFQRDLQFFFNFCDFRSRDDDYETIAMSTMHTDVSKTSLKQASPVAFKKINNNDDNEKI
Kind of experiment: Radioligand binding, human neuropeptide Y NPY-Y1 membranes, FlashPlate, [125I]-PYY. The note with it: compound at 10 μM; for A9: inhibition of radioligand binding: FlashPlate. The method in brief:
as §1

A further experiment concerns the target T5, Human κ-Opioid (KOP) (Homo sapiens, UniProt P41145).
T5 construct: purchased Perkin Elmer Biosignal
Description: Radioligand binding, human κ-opioid (KOP) membranes, filtration, [3H]-Diprenorphine. The note with it: compound at 10 μM; for A2: inhibition of radioligand binding: filtration. The method, boiled down: (§2)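 Filtration binding on cloned human receptor membranes (1 Unit/well), [125I]-Substance P for NK1 and [3H]-Diprenorphine for KOP, 1 h at room temperature. Filters PEI-presoaked, washed with cold 50 mM Tris-HCl pH 7.4, counted by scintillation; percent inhibition calculated, reference ligand defining non-specific binding.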

For a further experiment, the target named is T6, Human Melanocortin (MC3) (Homo sapiens, UniProt P41968).
T6 construct: purchased Perkin Elmer Biosignal
T6 sequence (P41968 whole entry): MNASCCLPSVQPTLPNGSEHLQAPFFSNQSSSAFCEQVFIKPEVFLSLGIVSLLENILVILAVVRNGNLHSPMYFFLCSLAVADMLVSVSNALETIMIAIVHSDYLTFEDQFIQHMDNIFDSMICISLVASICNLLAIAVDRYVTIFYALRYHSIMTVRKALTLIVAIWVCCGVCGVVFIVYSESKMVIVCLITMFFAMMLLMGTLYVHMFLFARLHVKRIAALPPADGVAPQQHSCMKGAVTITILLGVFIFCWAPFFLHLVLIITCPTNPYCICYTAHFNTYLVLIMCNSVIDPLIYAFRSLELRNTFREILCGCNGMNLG
Kind of experiment: Radioligand binding, human melanocortin MC3 membranes, FlashPlate, [125I]-NDP-αMSH. The note with it: compound at 10 μM; for A3: inhibition of radioligand binding: FlashPlate. The method in brief:
as §1

In a further experiment the target is T7, Human Melanocortin (MC4) (Homo sapiens, UniProt P32245).
T7 construct: purchased Perkin Elmer Biosignal
T7 sequence (P32245 whole entry): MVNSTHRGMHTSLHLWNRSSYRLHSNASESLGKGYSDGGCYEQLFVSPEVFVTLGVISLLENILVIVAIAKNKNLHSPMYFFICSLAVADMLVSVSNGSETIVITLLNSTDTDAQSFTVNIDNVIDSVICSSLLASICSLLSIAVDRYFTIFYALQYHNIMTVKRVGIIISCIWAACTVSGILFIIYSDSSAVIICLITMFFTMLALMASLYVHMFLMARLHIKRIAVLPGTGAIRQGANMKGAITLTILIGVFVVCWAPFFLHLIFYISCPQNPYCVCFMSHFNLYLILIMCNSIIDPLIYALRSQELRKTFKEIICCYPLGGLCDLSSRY
Description: Radioligand binding, human melanocortin MC4 membranes, FlashPlate, [125I]-NDP-αMSH. The settings on record: compound at 10 μM; for A4: inhibition of radioligand binding: FlashPlate. The method, boiled down:
as §1

A further experiment has as its target T8, Human neurokinin (NK1) (Homo sapiens, UniProt P25103).
T8 construct: purchased Perkin Elmer Biosignal
Kind of experiment: Radioligand binding, human neurokinin NK1 membranes, filtration, [125I]-Substance P. The note with it: compound at 10 μM; for A8: inhibition of radioligand binding: filtration. The method, boiled down: as §2

Another experiment addresses T9, Human opioid (ORL1) (Homo sapiens, UniProt P41146).
T9 construct: purchased Perkin Elmer Biosignal
Kind of experiment: Radioligand binding, human opioid ORL1 membranes, FlashPlate, [125I]-Nociceptin. The note with it: compound at 10 μM; for A10: inhibition of radioligand binding: FlashPlate. The method, boiled down:
as §1

The target in experiment [2] is T10, Human melanin-concentrating hormone (MCH1) (Homo sapiens, UniProt Q99705).
T10 construct: purchased Perkin Elmer Biosignal
T10 sequence (Q99705 whole entry): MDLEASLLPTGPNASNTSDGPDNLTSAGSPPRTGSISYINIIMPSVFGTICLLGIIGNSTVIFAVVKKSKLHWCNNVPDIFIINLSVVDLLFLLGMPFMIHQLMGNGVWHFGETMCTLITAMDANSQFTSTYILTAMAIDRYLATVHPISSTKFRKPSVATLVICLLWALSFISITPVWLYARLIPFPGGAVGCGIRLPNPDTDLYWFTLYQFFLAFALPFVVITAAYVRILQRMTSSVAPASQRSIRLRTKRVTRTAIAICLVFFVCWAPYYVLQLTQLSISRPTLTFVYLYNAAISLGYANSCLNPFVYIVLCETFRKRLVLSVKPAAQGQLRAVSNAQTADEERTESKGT
Description: Radioligand binding, human melanin-concentrating hormone MCH1 membranes, FlashPlate, [125I]-S36057. The settings on record: compound at 10 μM; for A6: inhibition of radioligand binding: [125I]-S36057, FlashPlate. The method in brief: as §1

Another experiment concerns the target T11, Mouse urotensin (mUR2) (Mus musculus, UniProt Q8VIH9).
T11 construct: purchased Perkin Elmer Biosignal
T11 sequence (Q8VIH9 1-385): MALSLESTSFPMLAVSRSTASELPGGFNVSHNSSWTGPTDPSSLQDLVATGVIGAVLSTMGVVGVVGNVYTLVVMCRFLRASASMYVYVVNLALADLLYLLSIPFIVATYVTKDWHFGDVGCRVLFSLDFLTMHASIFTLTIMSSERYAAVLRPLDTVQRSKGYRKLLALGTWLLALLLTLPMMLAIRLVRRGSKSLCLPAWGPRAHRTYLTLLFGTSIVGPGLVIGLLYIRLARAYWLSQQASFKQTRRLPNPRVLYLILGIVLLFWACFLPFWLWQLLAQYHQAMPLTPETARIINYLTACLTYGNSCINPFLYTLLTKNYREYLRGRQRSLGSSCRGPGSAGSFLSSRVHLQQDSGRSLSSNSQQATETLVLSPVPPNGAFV
Description: Radioligand binding, mouse urotensin mUR2 membranes, FlashPlate, [125I]-Urotensin II. The note with it: compound at 10 μM; for A11: inhibition of radioligand binding: FlashPlate. The method, boiled down: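 Cloned mouse urotensin (mUR2) receptor membranes from Perkin Elmer Biosignal were immobilized in FlashPlate microplates using a proprietary coating. Each well got 19.5 μl buffer, then 0.5 μl of DMSO, reference ligand, or compound. Adding 5 μl of [125I]-Urotensin II, diluted to 5× final concentration in binding buffer, started binding. Plates were sealed with TopSeal-A and incubated 1 hour at room temperature in the dark. Wells were counted for 30 seconds each on a TopCount after a 60-second delay, and percentage inhibition was calculated.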

T1 sequence (P35372 whole entry): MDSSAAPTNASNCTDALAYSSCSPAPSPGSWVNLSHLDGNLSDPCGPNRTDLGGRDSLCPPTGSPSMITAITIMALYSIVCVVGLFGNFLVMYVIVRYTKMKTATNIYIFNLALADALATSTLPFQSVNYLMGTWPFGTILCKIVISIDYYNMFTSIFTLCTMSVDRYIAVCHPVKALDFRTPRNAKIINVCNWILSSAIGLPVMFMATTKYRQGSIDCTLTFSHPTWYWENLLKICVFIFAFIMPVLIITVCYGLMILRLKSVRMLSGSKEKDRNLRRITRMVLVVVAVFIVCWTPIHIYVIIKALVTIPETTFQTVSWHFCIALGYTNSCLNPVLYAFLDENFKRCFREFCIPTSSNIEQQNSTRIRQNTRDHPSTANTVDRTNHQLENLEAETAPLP
T9 sequence (P41146 whole entry): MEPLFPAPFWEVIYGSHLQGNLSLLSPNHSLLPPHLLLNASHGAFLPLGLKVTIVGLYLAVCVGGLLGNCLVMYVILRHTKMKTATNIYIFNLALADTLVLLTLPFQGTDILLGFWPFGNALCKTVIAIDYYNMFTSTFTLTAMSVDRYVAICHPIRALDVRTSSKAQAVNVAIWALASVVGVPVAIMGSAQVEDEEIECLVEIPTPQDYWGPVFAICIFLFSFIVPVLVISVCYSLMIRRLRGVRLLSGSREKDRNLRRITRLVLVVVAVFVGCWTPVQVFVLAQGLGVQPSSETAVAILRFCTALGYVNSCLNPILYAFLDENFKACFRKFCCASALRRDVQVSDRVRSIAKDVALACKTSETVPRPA
T8 sequence (P25103 whole entry): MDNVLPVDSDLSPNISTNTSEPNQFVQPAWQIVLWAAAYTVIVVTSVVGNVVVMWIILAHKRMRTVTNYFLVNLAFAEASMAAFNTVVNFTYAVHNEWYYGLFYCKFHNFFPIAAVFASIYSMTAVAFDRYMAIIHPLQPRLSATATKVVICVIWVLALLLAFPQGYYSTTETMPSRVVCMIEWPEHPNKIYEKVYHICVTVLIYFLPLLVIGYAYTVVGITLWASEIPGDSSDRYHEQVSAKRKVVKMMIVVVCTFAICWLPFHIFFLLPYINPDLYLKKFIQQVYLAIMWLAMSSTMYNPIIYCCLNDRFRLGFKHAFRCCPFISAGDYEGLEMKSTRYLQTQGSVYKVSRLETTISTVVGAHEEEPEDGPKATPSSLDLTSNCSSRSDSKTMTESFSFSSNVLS
T5 sequence (P41145 whole entry): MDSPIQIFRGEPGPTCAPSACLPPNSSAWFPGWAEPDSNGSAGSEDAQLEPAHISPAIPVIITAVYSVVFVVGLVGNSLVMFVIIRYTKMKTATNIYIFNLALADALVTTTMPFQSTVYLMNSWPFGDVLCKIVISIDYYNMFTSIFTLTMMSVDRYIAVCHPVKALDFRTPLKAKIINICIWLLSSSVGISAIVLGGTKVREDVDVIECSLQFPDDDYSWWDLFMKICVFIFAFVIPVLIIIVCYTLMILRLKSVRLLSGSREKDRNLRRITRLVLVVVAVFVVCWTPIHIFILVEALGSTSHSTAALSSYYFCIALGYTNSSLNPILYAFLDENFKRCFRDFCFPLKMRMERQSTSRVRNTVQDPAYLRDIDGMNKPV

For the molecule `CO[C@H]1[C@H](O)[C@@H](COCc2ccc3ccccc3c2)OC(OCc2cccc(O)c2)[C@@H]1NC(=O)CNC(=N)N` (some centres unmarked) [compound 165], the “A7 radioligand binding, percentage inhibition” value on Human μ-opioid (MOP) ([3H]-Naloxone) is reported as “− (“−” indicates less than 50% inhibition at 10 μM)”. In addition, the “A5 radioligand binding, percentage inhibition” value at Human melanocortin (MC5) ([125I]-NDP-αMSH) is “− (“−” indicates less than 50% inhibition at 10 μM)”. In addition, on Human δ-opioid (DOP) ([3H]-Bremazocine), the “A1 radioligand binding, percentage inhibition” value is on record as “− (“−” indicates less than 50% inhibition at 10 μM)”. Further, the “A9 radioligand binding, percentage inhibition” value in [1] ([125I]-PYY) is recorded as “− (“−” indicates less than 50% inhibition at 10 μM)”. The “A2 radioligand binding, percentage inhibition” value at Human κ-Opioid (KOP) ([3H]-Diprenorphine) was “− (“−” indicates less than 50% inhibition at 10 μM)”. Further, the “A3 radioligand binding, percentage inhibition” value on Human Melanocortin (MC3) ([125I]-NDP-αMSH) is “− (“−” indicates less than 50% inhibition at 10 μM)”. On Human Melanocortin (MC4) ([125I]-NDP-αMSH), the “A4 radioligand binding, percentage inhibition” value is “− (“−” indicates less than 50% inhibition at 10 μM)”. Also, at Human neurokinin (NK1) ([125I]-Substance P), the “A8 radioligand binding, percentage inhibition” value was “+ (“+” indicates greater than 50% inhibition at 10 μM)”. Moreover, at Human opioid (ORL1) ([125I]-Nociceptin), the “A10 radioligand binding, percentage inhibition” value was “− (“−” indicates less than 50% inhibition at 10 μM)”. The “A6 radioligand binding, percentage inhibition” value in [2] ([125I]-S36057) was “− (“−” indicates less than 50% inhibition at 10 μM)”. Further, at Mouse urotensin (mUR2) ([125I]-Urotensin II), the “A11 radioligand binding, percentage inhibition” value is recorded as “− (“−” indicates less than 50% inhibition at 10 μM)”.
For `COC[C@H]1OC(OCc2ccc(-c3ccccc3)cc2)[C@H](NC(=O)CCCNC(=N)N)[C@@H](OCc2ccccc2)[C@@H]1O` (some centres unmarked) [compound 8], at Human μ-opioid (MOP) (human μ-opioid (MOP) membranes), the “A7 radioligand binding inhibition” value is on record as “− (“−” indicates less than 50% inhibition at 10 μM)”. Moreover, the “A5 radioligand binding inhibition” value on Human melanocortin (MC5) (human melanocortin MC5 membranes) is “− (“−” indicates less than 50% inhibition at 10 μM)”. Besides, the “A1 radioligand binding inhibition” value at Human δ-opioid (DOP) (human δ-opioid (DOP) membranes) is listed as “− (“−” indicates less than 50% inhibition at 10 μM)”. The “A9 radioligand binding inhibition” value in experiment [1] (human NPY-Y1 membranes) was “− (“−” indicates less than 50% inhibition at 10 μM)”. Moreover, the “A2 radioligand binding inhibition” value at Human κ-Opioid (KOP) (human κ-opioid (KOP) membranes) is on record as “− (“−” indicates less than 50% inhibition at 10 μM)”. The “A3 radioligand binding inhibition” value on Human Melanocortin (MC3) (human melanocortin MC3 membranes) is recorded as “− (“−” indicates less than 50% inhibition at 10 μM)”. The “A4 radioligand binding inhibition” value on Human Melanocortin (MC4) (human melanocortin MC4 membranes) is on record as “− (“−” indicates less than 50% inhibition at 10 μM)”. Further, on Human neurokinin (NK1) (human neurokinin NK1 membranes), the “A8 radioligand binding inhibition” value was “+ (“+” indicates greater than 50% inhibition at 10 μM)”. Also, the “A10 radioligand binding inhibition” value at Human opioid (ORL1) (human ORL1 membranes) is listed as “− (“−” indicates less than 50% inhibition at 10 μM)”. The “A6 radioligand binding inhibition” value in experiment [2] (human MCH1 membranes, 10 µM) is recorded as “+ (“+” indicates greater than 50% inhibition at 10 μM)”. Further, the “A11 radioligand binding inhibition” value on Mouse urotensin (mUR2) (mouse urotensin mUR2 membranes) was “− (“−” indicates less than 50% inhibition at 10 μM)”.
For the molecule `CSC1OC(COCc2ccc3ccccc3c2)C(O)C(OCc2ccccc2)C1NC(=O)CCN` (centres unmarked) [compound 261], the “A7: inhibition of radioligand binding” value at Human μ-opioid (MOP) ([3H]-Naloxone) was “− (“−” indicates less than 50% inhibition at 10 μM)”. Moreover, the “A5: inhibition of radioligand binding” value on Human melanocortin (MC5) ([125I]-NDP-αMSH) is listed as “+ (“+” indicates greater than 50% inhibition at 10 μM)”. For the same molecule, on Human δ-opioid (DOP) ([3H]-Bremazocine), the “A1: inhibition of radioligand binding” value was “− (“−” indicates less than 50% inhibition at 10 μM)”. In experiment [1] ([125I]-PYY), the “A9: inhibition of radioligand binding” value is “− (“−” indicates less than 50% inhibition at 10 μM)”. Further, on Human κ-Opioid (KOP) ([3H]-Diprenorphine), the “A2: inhibition of radioligand binding” value is reported as “− (“−” indicates less than 50% inhibition at 10 μM)”. For the same molecule, on Human Melanocortin (MC3) ([125I]-NDP-αMSH), the “A3: inhibition of radioligand binding” value was “− (“−” indicates less than 50% inhibition at 10 μM)”. For the same molecule, the “A4: inhibition of radioligand binding” value on Human Melanocortin (MC4) ([125I]-NDP-αMSH) is on record as “− (“−” indicates less than 50% inhibition at 10 μM)”. Moreover, at Human neurokinin (NK1) ([125I]-Substance P), the “A8: inhibition of radioligand binding” value was “− (“−” indicates less than 50% inhibition at 10 μM)”. Further, the “A10: inhibition of radioligand binding” value at Human opioid (ORL1) ([125I]-Nociceptin) is “− (“−” indicates less than 50% inhibition at 10 μM)”. Moreover, the “A6: inhibition of radioligand binding” value in [2] is reported as “− (“−” indicates less than 50% inhibition at 10 μM)”. In addition, the “A11: inhibition of radioligand binding” value on Mouse urotensin (mUR2) ([125I]-Urotensin II) was “− (“−” indicates less than 50% inhibition at 10 μM)”.
As for `CSC1OC(COCc2ccc(Cl)cc2)C(O)C(OCc2ccccc2)C1NC(=O)CNC(=N)N` (centres unmarked) [compound 253], the “A7: inhibition of radioligand binding” value at Human μ-opioid (MOP) ([3H]-Naloxone) is “− (“−” indicates less than 50% inhibition at 10 μM)”. Moreover, at Human melanocortin (MC5) ([125I]-NDP-αMSH), the “A5: inhibition of radioligand binding” value is listed as “+ (“+” indicates greater than 50% inhibition at 10 μM)”. In addition, the “A1: inhibition of radioligand binding” value at Human δ-opioid (DOP) ([3H]-Bremazocine) was “− (“−” indicates less than 50% inhibition at 10 μM)”. Further, in experiment [1] ([125I]-PYY), the “A9: inhibition of radioligand binding” value is “− (“−” indicates less than 50% inhibition at 10 μM)”. Also, the “A2: inhibition of radioligand binding” value on Human κ-Opioid (KOP) ([3H]-Diprenorphine) is recorded as “− (“−” indicates less than 50% inhibition at 10 μM)”. Besides, the “A3: inhibition of radioligand binding” value on Human Melanocortin (MC3) ([125I]-NDP-αMSH) is on record as “− (“−” indicates less than 50% inhibition at 10 μM)”. Moreover, the “A4: inhibition of radioligand binding” value on Human Melanocortin (MC4) ([125I]-NDP-αMSH) is “− (“−” indicates less than 50% inhibition at 10 μM)”. Further, the “A8: inhibition of radioligand binding” value on Human neurokinin (NK1) ([125I]-Substance P) is listed as “+ (“+” indicates greater than 50% inhibition at 10 μM)”. Moreover, at Human opioid (ORL1) ([125I]-Nociceptin), the “A10: inhibition of radioligand binding” value is recorded as “− (“−” indicates less than 50% inhibition at 10 μM)”. Moreover, the “A6: inhibition of radioligand binding” value in experiment [2] is “− (“−” indicates less than 50% inhibition at 10 μM)”. For the same molecule, the “A11: inhibition of radioligand binding” value on Mouse urotensin (mUR2) ([125I]-Urotensin II) is given as “− (“−” indicates less than 50% inhibition at 10 μM)”.
